Assay results: article PMC9388626, “STUB1 is an intracellular checkpoint for interferon gamma sensing” (Scientific Reports, 2022)

Assays:
B16-F10 cells [1] = test: Flow cytometry, surface IFNGR1 on CRISPR-edited cells; type: cell-based, murine; conditions: for Surface IFNGR1 relative to Parental (Fig. 2c): Parental = 1.00
Description: Parental, CRISPR-edited or biologic-overexpressed tumour cells were seeded in a cell density of 60,000 (B16-F10), 150,000 (CT26), 100,000 (A375), or 200,000 (A549) per well in 12-well plate filled with 0.8 ml culture media + 10% FBS. After overnight incubation, the culture media were replaced with 1 ml fresh media supplemented with 10% FBS and the designated concentration of the recombinant mouse IFNγ (R&D Systems, #485-MI-100) or recombinant human IFNγ (R&D Systems, #285-IF-100). The cells were stimulated with the cytokine for 24 h before they were harvested by trypsinization for flow cytometry, western blot, or qPCR analysis (6 h treatment).
(§1) Cells were dissociated from the wells with 0.25% trypsin (Gibco, 25200056). After rinsing with 0.5 ml PBS, each sample was stained with the LIVE/DEAD Fixable Aqua dead cell staining solution (Life Technologies, L34957) in 100 µl PBS (1:1000 dilution) for 15 min at 4 °C. After rinsing with 2 × 0.5 ml PBS, each sample was stained with the corresponding primary antibody-dye conjugates diluted in 100 µl Pharmingen stain buffer (BD Biosciences, #554657). After 1 h staining at 4 °C, the cells were rinsed with 2 × 2 ml Pharmingen stain buffer and fixed with 4.21% (w/w) formaldehyde (BD Biosciences, #554655). Cells were analyzed on LSRFortessa X-20 (BD Biosciences) with appropiate fluorescence compensation. The data were analyzed using FlowJo. Cells were gated based on FSC and SSC. Single cells were selected using FSC-A and FSC-H and viable cells were selected using LIVE/DEAD signal. Primary antibodies used were: H-2K^b/H-2D^b (FITC, Biolegend, #114606, 1:50 dilution), HLA-A,B,C (FITC, Biolegend, #311404, 1:100 dilution), mouse IFNGR1 (PE, Invitrogen, #12-1191-82, 1:50 dilution), human IFNGR1 (PE, Miltenyi, #130-125-851, 1:50 dilution), mouse IL1R1 (APC, Biolegend, #113509, 1:20 dilution), mouse IL6R (APC, Biolegend, #115812, 1:20 dilution), mouse IFNAR1 (APC, Biolegend, #127314, 1:20 dilution), and mouse GP130 (PE, Biolegend, #149404, 1:100 dilution).

DU145 cells = test: Lumit immunoassay, phospho-Tyr701-STAT1; type: cell-based, human; conditions: DU145, PTPN2 or STUB1 loss, 30 min
Description: (§2) Parental and CRISPR-edited tumour cells were seeded in a cell density of 12,500 (DU145), 15,000 (PC-3), or 30,000 (MCF7) per well in 384-well plate (Greiner Bio-One, #781080) filled with 25 µl culture media + 10% FBS. After 20–24 h incubation, the cells were treated with recombinant human IFNγ (R&D Systems, #285-IF-100) by adding an equal volume of the complete culture media containing the cytokine. After 30 min of stimulation, the culture media were removed by gentle spin using Blue Washer (BlueCatBio). Lumit immunoassay (Promega, #W1202) was performed according to manufacturer’s instrutions. The assay buffer was supplemented with Halt protease and phosphatase inhibitor cocktail (Thermo Scientific, #78443). The cells were lyzed with 12 µl per well of lysis solution (0.02% digitonin) for 20 min. The cell lystates were probed for 90 min with 12 µl of mixture of primary antibodies, which include anti-STAT1 rabbit antibody (Cell Signaling Technology, #14994), anti-pSTAT1 (Tyr701) mouse antibody (Abcam, ab29045), Lumit anti-mouse antibody-LgBiT (Promega) and Lumit anti-rabbit antibody-SmBiT (Promega). Final concentration of each antibody is 0.15 µg ml^−1. After 2 min incubation in the presence of the Lumit detection reagent (6 µl), the luminescence signals were detected by Infinite M1000 PRO (Tecan).

MCF7 cells = test: Lumit immunoassay, phospho-Tyr701-STAT1; type: cell-based, human; conditions: MCF7, PTPN2 or STUB1 loss, 30 min
Description: as §2

PC-3 cells = test: Lumit immunoassay, phospho-Tyr701-STAT1; type: cell-based, human; conditions: PC-3, PTPN2 or STUB1 loss, 30 min
Description: as §2

B16-F10 cells [2] = test: Flow cytometry, surface level of other cytokine receptors (IL1R1, IL6R, GP130, IFNAR1); type: cell-based, murine
Description: as §1

IFNγ
Cell surface IFNGR1 with increasing IFNγ (B16-F10 cells [1]; B16-F10, 24 h): declined with increasing IFNγ concentration | Phosphorylation of Tyr701-STAT1 (DU145 cells): increased the cells’ response to IFNγ in a dose-dependent manner | Phosphorylation of Tyr701-STAT1 (MCF7 cells): increased the cells’ response to IFNγ in a dose-dependent manner | Phosphorylation of Tyr701-STAT1 (PC-3 cells): increased the cells’ response to IFNγ in a dose-dependent manner

gStub1 #1 (guide GCATTGCTAAGAAGAAGCGC; chemistry not given here)
Surface IFNGR1 (Fig. 2b) (B16-F10 cells [1]; IFNg 0.01 ng/ml, replicate 1): 4507 | Surface IFNGR1 relative to Parental (Fig. 2c) (B16-F10 cells [1]; IFNg 0.01 ng/ml, replicate 1): 2.35 | Surface IFNGR1 (Fig. 2b) (B16-F10 cells [1]; IFNg 0.01 ng/ml, replicate 2): 4382 | Surface IFNGR1 relative to Parental (Fig. 2c) (B16-F10 cells [1]; IFNg 0.01 ng/ml, replicate 2): 2.34 | Surface IFNGR1 (Fig. 2b) (B16-F10 cells [1]; IFNg 0.01 ng/ml, replicate 3): 3988 | Surface IFNGR1 relative to Parental (Fig. 2c) (B16-F10 cells [1]; IFNg 0.01 ng/ml, replicate 3): 2.16 | Surface IFNGR1 (Fig. 2b) (B16-F10 cells [1]; IFNg 0.03 ng/ml, replicate 1): 4026 | Surface IFNGR1 relative to Parental (Fig. 2c) (B16-F10 cells [1]; IFNg 0.03 ng/ml, replicate 1): 1.83 | Surface IFNGR1 (Fig. 2b) (B16-F10 cells [1]; IFNg 0.03 ng/ml, replicate 2): 3680 | Surface IFNGR1 relative to Parental (Fig. 2c) (B16-F10 cells [1]; IFNg 0.03 ng/ml, replicate 2): 1.69 | Surface IFNGR1 (Fig. 2b) (B16-F10 cells [1]; IFNg 0.03 ng/ml, replicate 3): 3566 | Surface IFNGR1 relative to Parental (Fig. 2c) (B16-F10 cells [1]; IFNg 0.03 ng/ml, replicate 3): 2.17 | Surface IFNGR1 (Fig. 2b) (B16-F10 cells [1]; IFNg 0.10 ng/ml, replicate 1): 4027 | Surface IFNGR1 relative to Parental (Fig. 2c) (B16-F10 cells [1]; IFNg 0.10 ng/ml, replicate 1): 2.07 | Surface IFNGR1 (Fig. 2b) (B16-F10 cells [1]; IFNg 0.10 ng/ml, replicate 2): 3862 | Surface IFNGR1 relative to Parental (Fig. 2c) (B16-F10 cells [1]; IFNg 0.10 ng/ml, replicate 2): 2.28 | Surface IFNGR1 (Fig. 2b) (B16-F10 cells [1]; IFNg 0.10 ng/ml, replicate 3): 3601 | Surface IFNGR1 relative to Parental (Fig. 2c) (B16-F10 cells [1]; IFNg 0.10 ng/ml, replicate 3): 2.06 | Surface IFNGR1 (Fig. 2b) (B16-F10 cells [1]; IFNg 0.30 ng/ml, replicate 1): 3595 | Surface IFNGR1 relative to Parental (Fig. 2c) (B16-F10 cells [1]; IFNg 0.30 ng/ml, replicate 1): 1.70 | Surface IFNGR1 (Fig. 2b) (B16-F10 cells [1]; IFNg 0.30 ng/ml, replicate 2): 3609 | Surface IFNGR1 relative to Parental (Fig. 2c) (B16-F10 cells [1]; IFNg 0.30 ng/ml, replicate 2): 2.03 | Surface IFNGR1 (Fig. 2b) (B16-F10 cells [1]; IFNg 0.30 ng/ml, replicate 3): 3263 | Surface IFNGR1 relative to Parental (Fig. 2c) (B16-F10 cells [1]; IFNg 0.30 ng/ml, replicate 3): 1.89 | Surface IFNGR1 (Fig. 2b) (B16-F10 cells [1]; IFNg 1.00 ng/ml, replicate 1): 3107 | Surface IFNGR1 relative to Parental (Fig. 2c) (B16-F10 cells [1]; IFNg 1.00 ng/ml, replicate 1): 1.68 | Surface IFNGR1 (Fig. 2b) (B16-F10 cells [1]; IFNg 1.00 ng/ml, replicate 2): 3061 | Surface IFNGR1 relative to Parental (Fig. 2c) (B16-F10 cells [1]; IFNg 1.00 ng/ml, replicate 2): 1.74 | Surface IFNGR1 (Fig. 2b) (B16-F10 cells [1]; IFNg 1.00 ng/ml, replicate 3): 2676 | Surface IFNGR1 relative to Parental (Fig. 2c) (B16-F10 cells [1]; IFNg 1.00 ng/ml, replicate 3): 1.66 | Surface IFNGR1 (Fig. 2b) (B16-F10 cells [1]; IFNg Nil, replicate 1): 4564 | Surface IFNGR1 relative to Parental (Fig. 2c) (B16-F10 cells [1]; IFNg Nil, replicate 1): 2.27 | Surface IFNGR1 (Fig. 2b) (B16-F10 cells [1]; IFNg Nil, replicate 2): 4378 | Surface IFNGR1 relative to Parental (Fig. 2c) (B16-F10 cells [1]; IFNg Nil, replicate 2): 2.36 | Surface IFNGR1 (Fig. 2b) (B16-F10 cells [1]; IFNg Nil, replicate 3): 4200 | Surface IFNGR1 relative to Parental (Fig. 2c) (B16-F10 cells [1]; IFNg Nil, replicate 3): 2.25 | Surface GP130 (Fig. 2d) (B16-F10 cells [2]; replicate 1): 1.09 | Surface IFNAR1 (Fig. 2d) (B16-F10 cells [2]; replicate 1): 0.74 | Surface IL1R1 (Fig. 2d) (B16-F10 cells [2]; replicate 1): 0.96 | Surface IL6R (Fig. 2d) (B16-F10 cells [2]; replicate 1): 0.93 | Surface GP130 (Fig. 2d) (B16-F10 cells [2]; replicate 2): 1.26 | Surface IFNAR1 (Fig. 2d) (B16-F10 cells [2]; replicate 2): 0.87 | Surface IL1R1 (Fig. 2d) (B16-F10 cells [2]; replicate 2): 0.97 | Surface IL6R (Fig. 2d) (B16-F10 cells [2]; replicate 2): 1.17 | Surface GP130 (Fig. 2d) (B16-F10 cells [2]; replicate 3): 1.41 | Surface IFNAR1 (Fig. 2d) (B16-F10 cells [2]; replicate 3): 1.30 | Surface IL1R1 (Fig. 2d) (B16-F10 cells [2]; replicate 3): 1.05 | Surface IL6R (Fig. 2d) (B16-F10 cells [2]; replicate 3): 1.24 | Surface GP130 (Fig. 2d) (B16-F10 cells [2]; replicate 4): 1.20 | Surface IFNAR1 (Fig. 2d) (B16-F10 cells [2]; replicate 4): 1.03 | Surface IL1R1 (Fig. 2d) (B16-F10 cells [2]; replicate 4): 1.02 | Surface IL6R (Fig. 2d) (B16-F10 cells [2]; replicate 4): 1.10
